How the values were obtained:
Experiment in all cases: relative viability (nuclei count vs DMSO), 5 days (fraction); higher = more cells survive
Sunitinib + OSI-027 = compound: CCN(CC)CCNC(=O)c1c(C)[nH]c(/C=C2\C(=O)Nc3ccc(F)cc32)c1C [Sunitinib] + COc1cccc2cc(-c3nc([C@H]4CC[C@H](C(=O)O)CC4)n4ncnc(N)c34)[nH]c12 [OSI-027] (partner 0.5 µM)
Summary of the method: (§1)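 Relative viability equals treated-well nuclei counts divided by vehicle-well nuclei counts. Counts came from 4× images of lung cancer cell lines grown in 1536-well plates for 5 days after pin-tool dosing on the day after seeding. Dosing used one drug alone or a fixed anchor-drug dose plus five library-drug doses (not always all listed) in √10 steps, and values are medians of duplicate plates.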

Sunitinib + Lapatinib = compound: CCN(CC)CCNC(=O)c1c(C)[nH]c(/C=C2\C(=O)Nc3ccc(F)cc32)c1C [Sunitinib] + CS(=O)(=O)CCNCc1ccc(-c2ccc3ncnc(Nc4ccc(OCc5cccc(F)c5)c(Cl)c4)c3c2)o1 [Lapatinib] (partner 2 µM)
Summary of the method: as §1

Sunitinib + Alpelisib = compound: CCN(CC)CCNC(=O)c1c(C)[nH]c(/C=C2\C(=O)Nc3ccc(F)cc32)c1C [Sunitinib] + Cc1nc(NC(=O)N2CCC[C@H]2C(N)=O)sc1-c1ccnc(C(C)(C)C(F)(F)F)c1 [Alpelisib] (partner 2 µM)
Summary of the method: as §1

Sunitinib + Linsitinib = compound: CCN(CC)CCNC(=O)c1c(C)[nH]c(/C=C2\C(=O)Nc3ccc(F)cc32)c1C [Sunitinib] + C[C@]1(O)C[C@@H](c2nc(-c3ccc4ccc(-c5ccccc5)nc4c3)c3c(N)nccn32)C1 [Linsitinib] (partner 1 µM)
Summary of the method: as §1

Cell Line	relative viability (Sunitinib + OSI-027; first compound 0.02 µM)	relative viability (Sunitinib + OSI-027; first compound 0.06325 µM)	relative viability (Sunitinib + OSI-027; first compound 0.2 µM)	relative viability (Sunitinib + OSI-027; first compound 0.6325 µM)	relative viability (Sunitinib + OSI-027; first compound 2 µM)	relative viability (Sunitinib + Lapatinib; first compound 0.02 µM)	relative viability (Sunitinib + Lapatinib; first compound 0.06325 µM)	relative viability (Sunitinib + Lapatinib; first compound 0.2 µM)	relative viability (Sunitinib + Lapatinib; first compound 0.6325 µM)	relative viability (Sunitinib + Lapatinib; first compound 2 µM)	relative viability (Sunitinib + Alpelisib; first compound 0.02 µM)	relative viability (Sunitinib + Alpelisib; first compound 0.06325 µM)	relative viability (Sunitinib + Alpelisib; first compound 0.2 µM)	relative viability (Sunitinib + Alpelisib; first compound 0.6325 µM)	relative viability (Sunitinib + Linsitinib; first compound 0.02 µM)	relative viability (Sunitinib + Linsitinib; first compound 0.06325 µM)	relative viability (Sunitinib + Linsitinib; first compound 0.2 µM)	relative viability (Sunitinib + Linsitinib; first compound 0.6325 µM)	relative viability (Sunitinib + Linsitinib; first compound 2 µM)	relative viability (Sunitinib + Alpelisib; first compound 2 µM)
LU99A	0.289	0.297	0.287	0.329	0.317	0.869	1.12	0.925	1.14	1.01	0.512	0.547	0.586	0.566	0.455	0.574	0.602	0.652	0.474	
LXF-289	0.759	0.964	0.863	0.913	0.961	0.903		0.948	0.984		1.01	1.02	1.13	1.12	0.947	0.978	1.02	0.988		1.04
NCI-H23	0.57	0.749	0.675	0.803	0.469	1.1	1.42	1.44	1.36	1.08	0.568	0.747	0.751	0.828	0.552	0.6	0.605	0.674	0.554	0.692
NCI-H322M	0.53	0.582	0.656	0.624	0.549	0.594	0.649	0.583	0.655	0.633	0.728	0.739	0.855	0.822	0.871	0.969	0.985	0.942	0.754	0.664
NCI-H441	0.651	0.751	0.898	0.684	0.47							0.83	0.766	0.569	0.406	0.491	0.542	0.555	0.612	0.487
NCI-H522	0.648	0.831	0.769	0.744	0.69															
NCI-H1299						0.956	0.988	0.992	0.932	0.953	1.02		1.06	1.08	0.922		1.05	0.998	1.05	1.06
NCI-H1648		0.24	0.266	0.231	0.294															
NCI-H1650	0.577	0.65	0.527	0.768	0.513	0.559		0.769	0.739	0.737										
NCI-H1703						0.633	0.264	0.318	0.245	0.284	0.211	0.161	0.199	0.154	0.51	0.18	0.257	0.174	0.17	0.188
NCI-H2170	0.746	0.687	0.802	0.737	0.576	0.313	0.264	0.271	0.268	0.243	0.757	0.782	0.998	0.914						0.777
NCI-H2342	0.663	0.657	0.589	0.675	0.703															
SW 900	0.597	0.715	0.665	0.584	0.614															

— the supplement of paper PMC10307832
